Holding throughout (experiment): DTP human tumour cell line panel, 48 h
Assay [1] concerns A498 renal.
In assay [2] the test system is DU-145 prostate.
The test system of assay [3] is HL-60(TB) leukemia.
The subject of assay [4] is OVCAR-8 ovarian.
For assay [5], the system named is PC-3 prostate.
Assay [6] relates to SF-295 CNS.
Assay [7] concerns SW-620 colon.
Assay [8] relates to UACC-62 melanoma.
The subject of assay [9] is SK-OV-3 ovarian.
Assay [10] deals with CAKI-1 renal.

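These data come from cells grown in 96-well plates and exposed to compound for 48 hours at five concentrations. GI50 is the concentration that inhibits growth by half. TGI: concentration producing complete growth inhibition.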 Where only a bound is given, the exact number is not on record here.

On to `O=C(Nc1cnc(C(F)(F)F)cn1)c1cc(Cl)ccc1O`, for which the GI50 (in general, the concentration at which growth is held to half of that of the control) in [1] was 0.235 µM; in assay [2] it was 0.348 µM; in assay [3] it was 0.279 µM; in [4], 0.365 µM; in [5] it was 0.311 µM; in assay [6] it was 0.255 µM. Besides, the figures for the GI50 in assay [7] and in assay [8] were 0.348 µM and 0.191 µM, respectively. Further, the TGI – broadly, the concentration at which net growth stops – is 0.639 µM in [1]; more than 100 µM in assay [2]; 0.654 µM in assay [3]; 61.8 µM in assay [4]; more than 100 µM in [5]; 0.675 µM in [6]. Also, the total growth inhibition concentration (TGI) in assay [7] was more than 100 µM; in assay [8], 1.48 µM.
With `COc1ccc(Oc2ccccc2NC(=O)CNC(=O)c2cccc3ccccc23)cc1`, the GI50 in [1] is 0.564 µM; in assay [2], 1.02 µM; in assay [3], 0.613 µM; in assay [4] it was 1.15 µM; in assay [5] it was 1.06 µM; in assay [6], 0.402 µM. The GI50 in assay [9] is 1.02 µM; in assay [7], 0.678 µM; in [8] it was 0.559 µM. Further, the total growth inhibition concentration (TGI) in assay [1] is 10.4 µM; in [2] it was more than 25 µM; in assay [3], 1.71 µM; in assay [4] it was more than 25 µM; in assay [5], more than 25 µM; in assay [6], more than 25 µM. In addition, the total growth inhibition concentration (TGI) in assay [9], in assay [7] and in assay [8] was more than 25 µM in each case.
For the compound `O=C1c2ccccc2C(=O)N1C1(C(=O)NC2(C(=O)O)CCCC2)CCCC1`, the TGI in [1], in [10], in assay [2], in assay [4], in [5] and in [6] was more than 100 µM throughout. Besides, the TGI in [9], in [7] and in assay [8] was more than 100 µM in each case.
Turning to `COc1ccc(-c2ccc(/C=N/n3c(COc4ccccc4Cl)n[nH]c3=S)o2)c([N+](=O)[O-])c1`, the GI50 in assay [1] is 14.4 µM; in [10], 24.6 µM; in assay [3] it was 22.4 µM; in [4], 21.3 µM; in assay [5], 23.6 µM; in [6] it was 22.6 µM. In addition, in [9], the GI50 was 35.4 µM. Besides, the TGI in assay [1] came out at 40.6 µM; in [10] it was 59.3 µM; in assay [3], 56.4 µM; in [4], 55.4 µM; in assay [5], 79.4 µM; in assay [6] it was 56.5 µM. Besides, in assay [9], the TGI is more than 100 µM.
Turning to `NCCC(=O)NC(Cc1cnc[nH]1)C(=O)O` (configuration not stated), the concentration for total growth inhibition (TGI) in [10], in assay [2], in assay [3], in assay [4], in assay [5] and in assay [6] was more than 100 µM in each case. Further, the total growth inhibition concentration (TGI) in assay [7] was more than 100 µM.
For the compound `COc1ccc2c(c1)C(=O)c1c-2n(CCCN)c(=O)c2cc([N+](=O)[O-])ccc12`, the GI50 in assay [1], in assay [10], in [2], in assay [5], in assay [6] and in assay [9] was less than 0.01 µM each time. The GI50 in [7] and in [8] was less than 0.01 µM each time. Moreover, the TGI in assay [1] was less than 0.01 µM; in assay [10], less than 0.01 µM; in [2], 0.0193 µM; in [5], 1.79 µM; in [6], 12.2 µM; in assay [9] it was less than 0.01 µM. In addition, the total growth inhibition concentration (TGI) was 0.146 µM in assay [7] and less than 0.01 µM in assay [8].
Take `CCN(CC)C(=O)COc1cc2c(O)c3c(O)c(C)c4c(c13)C(=O)C(C)(OC=CC(OC)C(C)C(OC(C)=O)C(C)C(O)C(C)C(O)C(C)C=CC=C(C)C(=O)N2)O4` (configuration not stated): the TGI in assay [1], in assay [10], in [2], in [4], in assay [5] and in assay [6] was more than 100 µM in each case. The concentration for total growth inhibition (TGI) in assay [9], in assay [7] and in [8] was more than 100 µM throughout.
For `O=c1c(-c2ccccc2)coc2cc(OC/C(=N/O)c3ccc(F)cc3)ccc12`, the GI50 in assay [10] was 0.0715 µM; in [2], 17.4 µM; in assay [3], 15 µM; in assay [4], 16.9 µM; in assay [5], 19 µM; in assay [6], 25.5 µM. The results for the GI50 in [9], in assay [7] and in assay [8] were 15.4 µM, 17.1 µM and 15.8 µM, respectively. Further, the TGI in assay [10] was 26.3 µM; in assay [2], 36 µM; in assay [3], 89.7 µM; in assay [4] it was 43.4 µM; in assay [5] it was 45.9 µM; in assay [6], 82.4 µM. Further, the TGI in [9] stood at 35.8 µM; in [7] it was 33.4 µM; in assay [8] it was 31.8 µM.
